Paper PMC3038857, “Using Nuclear Receptor Activity to Stratify Hepatocarcinogens” (PLoS ONE, 2011)

Legend:
Rat Liver [1] = details: chronic study, rat liver; ref ToxRefDB; cited from earlier work
PXR (NR1I2) = molecular target: T1, PXR (NR1I2) (Homo sapiens, UniProt O75469); test: ATG_PXRE_CIS: Factorial reporter gene assay (HepG2); type: cell-based; design: endogenous in cells; host or cells: HepG2
T1 sequence (O75469 1-434): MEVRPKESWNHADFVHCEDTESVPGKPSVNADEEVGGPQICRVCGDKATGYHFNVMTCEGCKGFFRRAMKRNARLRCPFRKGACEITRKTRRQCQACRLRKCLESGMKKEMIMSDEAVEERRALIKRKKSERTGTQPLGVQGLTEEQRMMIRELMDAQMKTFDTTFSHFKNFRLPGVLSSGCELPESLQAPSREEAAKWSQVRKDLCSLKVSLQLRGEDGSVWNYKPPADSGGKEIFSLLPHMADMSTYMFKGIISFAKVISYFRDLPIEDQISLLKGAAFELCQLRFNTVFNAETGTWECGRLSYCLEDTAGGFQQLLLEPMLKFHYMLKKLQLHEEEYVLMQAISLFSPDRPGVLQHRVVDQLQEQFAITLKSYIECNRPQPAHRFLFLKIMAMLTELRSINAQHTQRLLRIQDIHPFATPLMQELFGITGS
Outline: (§1)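 HepG2 cells were transfected with a multiple reporter transcription unit (MRTU) library of 48 transcription factor binding sites for the cis-acting PXRE assay. The ERRg, FXR and PPARg assays used a trans mammalian one-hybrid system with a further 25-unit nuclear receptor MRTU library. Chemicals were tested at seven concentrations, from the MTC downward in three-fold steps.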

Rat Liver [2] = details: chronic study, rat liver; ref ToxRefDB; cited from earlier work; remark: listed apart in the source
ERa (ESR1) [3] = molecular target: T2, ERa (ESR1) (Homo sapiens, UniProt P03372); test: NCGC_ERalpha_Antagonist: GAL4 BLAM Reporter gene assay: ERa; type: cell-based; details: antagonist mode
T2 construct: expressed in transfected cells; host or cells: HEK293
T2 sequence (P03372 whole entry, the tested form may be a part): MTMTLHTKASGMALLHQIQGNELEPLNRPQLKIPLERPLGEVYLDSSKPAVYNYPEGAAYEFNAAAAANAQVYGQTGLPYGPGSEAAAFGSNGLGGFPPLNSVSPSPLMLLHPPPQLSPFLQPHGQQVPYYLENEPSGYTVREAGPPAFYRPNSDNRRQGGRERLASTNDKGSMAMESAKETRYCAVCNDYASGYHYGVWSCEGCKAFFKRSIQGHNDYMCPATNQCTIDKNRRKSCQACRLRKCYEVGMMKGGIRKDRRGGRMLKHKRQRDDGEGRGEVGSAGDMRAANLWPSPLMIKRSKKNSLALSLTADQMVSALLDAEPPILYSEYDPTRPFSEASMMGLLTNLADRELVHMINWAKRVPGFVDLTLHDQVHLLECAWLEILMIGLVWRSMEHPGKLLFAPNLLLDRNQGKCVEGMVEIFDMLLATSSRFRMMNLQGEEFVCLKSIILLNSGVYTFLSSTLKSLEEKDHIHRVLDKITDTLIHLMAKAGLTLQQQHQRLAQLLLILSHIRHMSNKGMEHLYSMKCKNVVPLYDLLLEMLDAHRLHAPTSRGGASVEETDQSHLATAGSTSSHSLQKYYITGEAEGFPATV

CAR (NR1I3) = molecular target: T3, CAR (NR1I3) (Homo sapiens, UniProt Q14994); test: ATG_PBREM_CIS: Factorial reporter gene assay (HepG2); type: cell-based; design: endogenous in cells; host or cells: HepG2; details: HepG2 reporter
T3 sequence (Q14994 1-352): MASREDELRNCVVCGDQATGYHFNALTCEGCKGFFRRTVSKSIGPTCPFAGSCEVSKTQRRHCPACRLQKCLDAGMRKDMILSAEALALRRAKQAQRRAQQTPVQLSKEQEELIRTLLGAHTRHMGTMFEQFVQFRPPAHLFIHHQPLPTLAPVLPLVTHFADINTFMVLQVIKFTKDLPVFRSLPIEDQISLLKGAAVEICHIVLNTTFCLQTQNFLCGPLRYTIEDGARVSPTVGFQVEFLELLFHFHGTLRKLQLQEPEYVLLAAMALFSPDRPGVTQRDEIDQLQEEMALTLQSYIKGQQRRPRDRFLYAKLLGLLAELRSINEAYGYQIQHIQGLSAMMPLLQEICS
Procedure: (§2) A multiple reporter transcription unit (MRTU) library consisting of 48 transcription factor binding sites was transfected into the HepG2 human liver hepatoma cell line. In addition to the cis-acting reporter genes (CIS), a modification of the approach was used to generate a trans-system (TRANS) with a mammalian one-hybrid assay consisting of an additional 25 MRTU library reporting the activity of nuclear receptor super-family members. […] These assays were performed by Attagene Inc. (Morrisville NC) under contract to EPA.
(§3) In addition to the cis-acting reporter genes (CIS), a modification of the approach was used to generate a trans-system (TRANS) with a mammalian one-hybrid assay consisting of an additional 25 MRTU library reporting the activity of nuclear receptor super-family members. […] Chemicals were then tested in the CIS and TRANS assays at seven concentrations starting at the MTC and followed by three-fold serial dilutions. These assays were performed by Attagene Inc. (Morrisville NC) under contract to EPA. Detailed description of the methods, data and analysis methods for this dataset will be presented in a separate publication.

[4] = molecular target: T4, ESR1 (estrogen receptor 1) (Homo sapiens, UniProt P03372); test: ATG_ERE_CIS: Factorial reporter gene assay (HepG2); type: cell-based
T4 construct: expressed in transfected cells; host or cells: HepG2
T4 sequence (P03372 whole entry): as the sequence (P03372 whole entry, the tested form may be a part) above
Procedure: as §2, §3

[5] = molecular target: T5, PPARG (peroxisome proliferator-activated receptor gamma) (Homo sapiens, UniProt P37231); test: ATG_PPARg_TRANS: Factorial reporter gene assay (HepG2); type: cell-based; details: HepG2 reporter
T5 construct: expressed in transfected cells; host or cells: HepG2
T5 sequence (P37231 1-505): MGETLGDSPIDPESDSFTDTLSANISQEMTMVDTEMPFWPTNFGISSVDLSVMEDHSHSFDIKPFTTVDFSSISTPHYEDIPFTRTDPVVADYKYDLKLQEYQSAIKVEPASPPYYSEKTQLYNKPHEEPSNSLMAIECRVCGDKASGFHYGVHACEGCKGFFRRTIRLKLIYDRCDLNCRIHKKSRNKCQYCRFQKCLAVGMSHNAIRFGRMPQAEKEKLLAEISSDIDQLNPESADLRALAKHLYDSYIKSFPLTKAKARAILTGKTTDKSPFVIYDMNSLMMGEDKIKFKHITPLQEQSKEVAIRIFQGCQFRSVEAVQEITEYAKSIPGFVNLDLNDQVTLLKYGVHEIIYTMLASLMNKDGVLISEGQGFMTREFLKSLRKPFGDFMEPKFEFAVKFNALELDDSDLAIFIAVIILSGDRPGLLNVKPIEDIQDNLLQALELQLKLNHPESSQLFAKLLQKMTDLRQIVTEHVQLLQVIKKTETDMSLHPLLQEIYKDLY
Outline: as §1

Rat Liver [6] = details: chronic study, rat liver; ref ToxRefDB; cited from earlier work; remark: listed apart in the source
[7] = molecular target: T4, ESR1 (estrogen receptor 1); test: ATG_ERa_TRANS: Factorial reporter gene assay (HepG2); type: cell-based
Procedure: as §2, §3

ABCB11 = test: CLZD_ABCB11: Change in expression of ABCB11 (primary human hepatocytes); type: cell-based; details: 24 hr
Procedure: This is a collection of multiplexed gene expression assays focused on Phase I and II xenobiotic metabolizing enzymes and transporters. Human primary cell cultures were treated with chemicals at 5 concentrations (0.004-40 [drawing 42] M) for 6, 24 and 48 hr. Concentration- and time-response profiles of chemicals were measured by the expression of key nuclear receptor target genes, activities of CYP1A enzymes (EROD), and cell morphology. Fourteen gene targets were monitored by quantitative nuclease protection assay including: six representative cytochrome P-450 genes, four hepatic transporters, three Phase II conjugating enzymes, and one endogenous metabolism gene involved in cholesterol synthesis. The target genes associated with nuclear receptor pathways are as follows: [drawing 43] and [drawing 44] with [drawing 45]; [drawing 46] , [drawing 47] , [drawing 48] , [drawing 49] , [drawing 50] and [drawing 51] with [drawing 52]; [drawing 53] , [drawing 54] , [drawing 55] and [drawing 56] with [drawing 57]; [drawing 58] with [drawing 59]; and [drawing 60] with [drawing 61] . Assays were run in primary human hepatocyte cultures by CellzDirect Invitrogen Inc. (Durham, NC), in collaboration with EPA.
Multiplexed Gene Expression in Human Primary Hepatocytes: This is a collection of multiplexed gene expression assays focused on Phase I and II metabolic enzymes and transporters. […] Fourteen gene targets were monitored by quantitative nuclease protection assay: six representative cytochrome P450 genes, four hepatic transporters, three Phase II conjugating enzymes, and one endogenous metabolism gene involved in cholesterol synthesis. Cells were exposed at 5 concentrations (0.004-40 µM) for 6, 24 or 48 hr. Gene targets are sentinels for five nuclear receptor signaling pathways: AhR, CAR, PXR, FXR, and PPARα. All gene are associated with nuclear receptor pathways: CYP1A1 and CYP1A2 with AHR; ABCB1, ABCG2, CYP2B6, CYP2C9, CYP2C19 and UGT1A1 with CAR; CYP3A4, GSTA2, SLCO1B1 and SULT2A1 with PXR; HMGCS2 with PPARA; and ABCB11 with FXR. […] Detailed description of the methods, data and analysis methods for this dataset will be presented in a separate publication.

CYP2B6 = test: CLZD_CYP2B6: Change in expression of CYP2B6 (primary human hepatocytes); type: cell-based; details: 24 hr
Outline: (§4)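 Read-out: mRNA change by multiplexed quantitative nuclease protection assay. Primary human hepatocytes; 5 concentrations, 0.004-40 µM; exposures 6, 24, 48 hr.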

ERa (ESR1) [8] = molecular target: T2, ERa (ESR1); test: NCGC_ERalpha_Agonist: GAL4 BLAM Reporter gene assay: ERa; type: cell-based; details: agonist mode
Procedure: These assays measure binding constants and enzyme inhibition values for nuclear receptors. The targets include [drawing 67] , [drawing 68] , [drawing 69] , [drawing 70] , [drawing 71] , [drawing 72] , [drawing 73] , [drawing 74] , [drawing 75] and [drawing 76] . Each of the nuclear receptor targets was measured in agonist mode. Assays were run at the NIH Chemical Genomics Center (Rockville, MD).
Cell-based HTS Assays: These assays measuring binding constants and enzyme inhibition values for nuclear receptors. The targets include AR, ER, FXR, LXR, PPARα, PPARδ, PPARγ, RXRα, RXRβ and PXR. Each of the nuclear receptor targets was measured in both agonist and antagonist mode, but the antagonist data is still undergoing analysis due to possible interference between cytotoxicity and assay activity, so antagonist mode data were not used in the present analysis. Assays were run at the NIH Chemical Genomics Center (Rockville, MD) as part of the Tox21 collaboration. […] The R^2 was required to be ≥0.5. Values where only the highest concentration exceeded 50% activity were excluded to eliminate weak or false positives. Detailed description of the methods, data and analysis methods for this dataset will be presented in a separate publication.

CYP3A4 = test: CLZD_CYP3A4: Change in expression of CYP3A4 (primary human hepatocytes); type: cell-based; details: 24 hr
Outline: as §4

CYP1A2 = test: CLZD_CYP1A2: Change in expression of CYP1A2 (primary human hepatocytes); type: cell-based; details: 24 hr
Outline: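 Chemicals are tested in human hepatocyte primary cultures over 0.004-40 µM (5 concentrations) for 6, 24 or 48 hr, and concentration- and time-dependent transcript changes are read by quantitative nuclease protection assay.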

SMILES	CHR_Rat_Liver_1_AnyLesion (Rat Liver [1])	ATG_PXRE_CIS (PXR (NR1I2); HepG2 reporter)	CHR_Rat_Liver_3_NeoplasticLesion (Rat Liver [2])	NCGC_ERalpha_Antagonist (ERa (ESR1) [3])	ATG_PBREM_CIS (CAR (NR1I3))	ATG_ERE_CIS ([4]; HepG2 reporter)	ATG_PPARg_TRANS [5]	CHR_Rat_Liver_2_PreneoplasticLesion (Rat Liver [6])	ATG_ERa_TRANS ([7]; HepG2 reporter)	CLZD_ABCB11_24 (ABCB11)	ATG_PXRE_CIS (PXR (NR1I2); HepG2)	CLZD_CYP2B6_24 (CYP2B6)	NCGC_ERalpha_Agonist (ERa (ESR1) [8])	CLZD_CYP3A4_24 (CYP3A4)	ATG_ERE_CIS ([4]; HepG2)	ATG_ERa_TRANS ([7]; HepG2)	CLZD_CYP1A2_24 (CYP1A2)
CC(C)(C)c1ccc(CSc2cnn(C(C)(C)C)c(=O)c2Cl)cc1 [r272]	0	5.444	0	5.155	5.699	4.959	4.854	0	4.367	5.168	–	–	–	–	–	–	–
COc1ccc(C(c2ccc(OC)cc2)C(Cl)(Cl)Cl)cc1 [row 201]	–	–	–	4.409	–	–	–	–	–	–	5.036	5.24	5.406	4.692	5.398	5.569	5.201
